This note sets out measurements from PMC12063173, “Metabolic Profiling of a Mediterranean-Inspired (Poly)phenol-Rich Mixture in the Brain: Perfusion Effect and In Vitro Blood–Brain Barrier Transport Validation” (Journal of Agricultural and Food Chemistry, 2025).

“Also recorded” adds a separate entry of the source. Read-outs that look alike come from different tables or passages of the source. A value given as a limit tells only on which side of the number the result lay.

The nature of series [1]: Targeted metabolomics (UPLC-ESI-QTOF) identification of metabolites in plasma, PB and NPB. To be noted: P plasma, PB perfused brain, NPB nonperfused brain, 1-24 h after oral capsule.
Method: Adult male Sprague–Dawley rats weighing 250–300 g were purchased from the Animal Experimentation Service of the University of Murcia (Murcia, Spain). […] Based on the experimental design shown in Figure 1, one capsule was administered by gavage to each fasting animal. A total of 40 animals were used in the study. Thirty animals received a capsule containing a mixture of different Mediterranean food extracts, while ten animals received a capsule with microcrystalline cellulose and served as the control group. […] To minimize animal use in accordance with the 3Rs principle, two control animals were sacrificed at each time point (one PB and one NPB). These controls served to identify potential endogenous compounds or background signals not related to the extract administration. All animals were fasted overnight prior to gavage and euthanized with carbon dioxide.
Plasma samples were extracted with ACN:formic acid (98:2, v/v), centrifuged and evaporated in a speed vacuum concentrator (Savant SPD14 0DDA). The evaporated samples were resuspended in 100 μL MeOH and filtered through 0.22 μm regenerated cellulose filters (Minisart Sartorius, Madrid, Spain). Next, half of the animals at each time point were perfused with ice-cold phosphate-buffered saline, and the blood-free brain was dissected out immediately and stored at – 80 °C until analysis, as previously reported.[37],[48]
Approximately 400 mg of brain tissue (perfused or nonperfused) was weighed and extensively washed with cold PBS to avoid external blood contamination. After weighting, the samples were placed in 2 mL screw cap tubes. […] The evaporated samples were resuspended in 100 μL MeOH and filtered through 0.22 μm regenerated cellulose filters.
We performed a targeted metabolomic analysis using an ultrahigh-performance liquid chromatographic system (UPLC) coupled to a quadrupole-time-of-flight (QTOF) mass spectrometer. The phenolic compounds were separated using an Agilent Poroshell 120 column (100 mm × 3 mm, 2.7 μm) and a 5 μL injection volume. […] The flow rate was set constant at 0.4 mL/min. The spectra were acquired in the m/z range from 100 to 1100, in negative polarity mode and an acquisition rate of 1.5 spectra per second. Quantitative data were processed using the Mass HunterQualitative Analysis software (version B.08.00, Agilent). A target screening strategy was applied for the qualitative analysis of possible metabolites derived from the consumption of the Mediterranean blend. […] These compounds encompass derived metabolites conjugated (glucuronides, sulfates, and sulfoglucuronides, among others). The exact mass of the proposed compound was extracted using an extraction window of 0.01 m/z. Metabolite quantification was performed by integrating the peak areas of their extracted ion chromatograms (EICs). Compounds with available standards were quantified using calibration curves derived from the respective standards, while other metabolites were semiquantified based on their peak area values.
The nature of series [2]: Nonperfused brain (NPB) kinetics of phenolic metabolites after oral capsule. It counts as in vivo, Sprague–Dawley rats. To be noted: nonperfused brain, oral capsule, 0-24 h, n = 3 per time point; for Tmax / MRT last / half-life: male, Sprague-Dawley, rat, 22 mg extract blend per capsule, one capsule per animal; for MRT last: read-out: MRT0-t NPB; for half-life: read-out: T1/2 NPB (converted). Further details: AUC0-t NPB: concentration or dose not given beside the values. From the text:
(§1) Statistical analyses were applied depending on the experimental context.

Series [3] relates to human brain microvascular endothelial cells (HBMECs). Description: In vitro blood–brain barrier transport (Transwell). The series is classed as in vitro ADME. To be noted: 2 h; for transport percentage, individual compounds: HBMEC monolayer, lower compartment / total concentration; for transport percentage, individual compounds / transport efficiency in both mixtures and as individual molecules: 2.5 μM; for transport efficiency in both mixtures and as individual molecules / transport efficiency in MIXperc compared with MIXeq: HBMEC; for transport efficiency in MIXperc compared with MIXeq: mixtures at 2.5 μM final. Here is the method: The BBB transport model was established using human brain microvascular endothelial cells (HBMECs), following a methodology previously described.[49] Cells were maintained at 37 °C in a humidified environment with 5% CO2. HBMECs were seeded on 12-well Transwell inserts (12 mm, 0.4 μm pore polyester membrane; Corning, Madrid, Spain) and cultured for 6 days to form confluent monolayers suitable for transport studies. Transport assays were carried out in Hanks’ Balanced Salt Solution (HBSS) supplemented with 0.1% fetal bovine serum (FBS, v/v). The cells were exposed on the apical side to individual phenolic metabolites detected in the brain from the animal study, a representative mixture containing equal concentrations of these metabolites, or a physiological mixture reproducing their relative percentages as observed in the brain. All treatments were applied at a final concentration of 2.5 μM for 2 h (Supporting Information, Table S3). The integrity of the cell monolayers was confirmed by measuring transendothelial electrical resistance (TEER) at the start of the experiment (0 h) and after the last time point (2 h) using an EVOM2 Epithelial Volt Ohm Meter (World Precision Instruments, Inc., USA).
Samples from the apical and basolateral compartments were stored at −80 °C for further analysis. Transport of the compounds was evaluated using UPLC-qTOF as described elsewhere,[38] and transendothelial permeability expressed as a percentage of the ratio between the concentration in the basolateral compartment relative to the total concentration in both compartments.
Finally, one-way ANOVA with Tukey’s multiple comparisons test was exclusively applied to in vitro BBB transport experiments. The three tested conditions for each compound (individual compound, a mixture containing equal concentrations of these compounds, or a physiological mixture reproducing their relative percentages as observed in the brain were evaluated. Plots were performed using GraphPad 9.0 (GraphPad Software, Boston, Massachusetts, USA). Statistical significance was set at P < 0.05.
Figure 3 Transport efficiency of phenolic metabolites across the BBB. Human brain microvascular endothelial cells (HBMEC) were seeded onto semipermeable membranes. […] Detailed composition of both mixtures is given in the Supporting Information, Table S3. Media from the upper and lower compartments were collected, and endothelial transport was evaluated by UPLC-qTOF-MS. The transport percentage (%) was determined by the concentration ratio in the lower compartment to the total concentration (upper and lower compartments). All values are presented as mean ± SD from three independent experiments.

Series [4] in a line: Plasma pharmacokinetics of phenolic metabolites after oral capsule of (poly)phenol-rich Mediterranean extract mixture. To be noted: for AUC0-t plasma / MRT0-t plasma / T1/2 plasma / Tmax plasma: oral capsule, 0-24 h, n = 6 per time point.
Method: Adult male Sprague–Dawley rats weighing 250–300 g were purchased from the Animal Experimentation Service of the University of Murcia (Murcia, Spain). […] Animals were maintained in a temperature-controlled environment with a 12 h light-dark cycle. […] Based on the experimental design shown in Figure 1, one capsule was administered by gavage to each fasting animal. A total of 40 animals were used in the study. Thirty animals received a capsule containing a mixture of different Mediterranean food extracts, while ten animals received a capsule with microcrystalline cellulose and served as the control group. At each time point (1, 3, 6, 8, and 24 h postadministration), six animals from the extract group were sacrificed, three with transcardial perfusion using saline (PB) and three without perfusion (NPB), to assess the distribution of extract-derived metabolites in plasma and brain. To minimize animal use in accordance with the 3Rs principle, two control animals were sacrificed at each time point (one PB and one NPB). […] All animals were fasted overnight prior to gavage and euthanized with carbon dioxide.
Blood samples collected by cardiac puncture in sodium heparin tubes at each time point after sacrifice were immediately centrifuged at 14,000 × g for 15 min at 4 °C, and the plasma was stored at −80 °C until their analysis. Plasma samples were extracted with ACN:formic acid (98:2, v/v), centrifuged and evaporated in a speed vacuum concentrator (Savant SPD14 0DDA). The evaporated samples were resuspended in 100 μL MeOH and filtered through 0.22 μm regenerated cellulose filters (Minisart Sartorius, Madrid, Spain).
We performed a targeted metabolomic analysis using an ultrahigh-performance liquid chromatographic system (UPLC) coupled to a quadrupole-time-of-flight (QTOF) mass spectrometer. The phenolic compounds were separated using an Agilent Poroshell 120 column (100 mm × 3 mm, 2.7 μm) and a 5 μL injection volume. The mobile phases used were 0.1% formic acid in water (A) and 0.1% formic acid in ACN (B), and the gradient was: 0–3 min, 5–15% B; 3–11 min, 15–30% B; 11–14 min, 30–50% B, 14–16 min, 50–90% B. Finally, the B content was decreased to the initial conditions (5%) in 1 min, and the column re-equilibrated for 4 min. The flow rate was set constant at 0.4 mL/min. The spectra were acquired in the m/z range from 100 to 1100, in negative polarity mode and an acquisition rate of 1.5 spectra per second.
The nature of series [5]: Perfused brain (PB) kinetics of phenolic metabolites after oral capsule. The series is classed as in vivo, Sprague–Dawley rats. To be noted: perfused brain; for half-life: read-out: T1/2 PB (converted). Further details: AUC0-t PB: concentration or dose not given beside the values.
Text: as §1

The mark [6] stands for this setting: read-out: Cmax plasma, oral capsule, 0-24 h, n = 6 per time point.
The mark [7] stands for this setting: oral capsule, 0-24 h, n = 3 per time point.
[8] abbreviates: male, Sprague-Dawley, rat, po, 22 mg extract blend per capsule, one capsule per animal.
The mark [9] stands for this setting: male, Sprague-Dawley, rat, 22 mg extract blend per capsule, one capsule per animal, oral capsule, 0-24 h, n = 3 per time point.

Broadly, the Cmax is the maximum level reached in the sampled fluid or tissue. Regarding `O=C(O)C=Cc1ccc(O)c(OS(=O)(=O)O)c1` [caffeic acid 3-O-sulfate], the occurrence entry in series [1] was “PB, NPB, P”. In series [2], the “AUC0-t NPB” value was found to be 3.32 pmol·h/g, the “Cmax NPB” value turned out to be 0.24 pmol/g tissue and the “Tmax NPB” value was found to be 3.00 h. For the same compound, in series [3], the “transport percentage, individual compounds” value (“transport percentage” below) is given as “exceeding 20%”; the “transport efficiency in both mixtures and as individual molecules” value is “relatively consistent transport efficiencies”. Also, in series [4], the AUC0-t plasma turned out to be 0.282 ± 0.332 µM·h, the MRT0-t plasma was found to be 13 ± 8.8 h, the T1/2 plasma was 8.3 ± 4.9 h and the Tmax plasma is 8.6 ± 8.9 h. Further, the Cmax in series [4] (setting [6]) came to 22 ± 21 nM. Moreover, in series [5] (setting [7]), the “AUC0-t PB” value was determined as 4.7 ± 1.8 pmol·h/g, the “Cmax PB” value is recorded as 1.0 ± 0.7 pmol/g tissue, the “MRT0-t PB” value turned out to be 8.7 ± 7.3 h and the “T1/2 PB” value is recorded as 5.2 ± 5.7 h. Moreover, in series [5] (setting [7]), the “Tmax PB” value is 3.0 ± 0.1 h.
As to `O=S(=O)(O)Oc1ccc(CCO)cc1O` [hydroxytyrosol 4′-O-sulfate], in series [1], the occurrence entry is listed as “PB, NPB, P”. Moreover, the occurrence entry in series [1] (listed as hydroxytyrosol 4′-sulfate) is “identified in plasma, perfused brain (PB), and nonperfused brain (NPB)”. Further, in series [2], the “AUC0-t NPB” value came to 84 ± 22 pmol·h/g, the “Cmax NPB” value came to 6.3 ± 2.6 pmol/g tissue, the “MRT0-t NPB” value worked out at 26 ± 22 h and the “T1/2 NPB” value was found to be 18 ± 14 h. For the same compound, the “Tmax NPB” value in series [2] is listed as 2.3 ± 1.2 h. Also, in series [4], the AUC0-t plasma was determined as 0.793 ± 0.403 µM·h, the MRT0-t plasma turned out to be 3.4 ± 0.5 h, the T1/2 plasma was found to be 3.0 ± 0.6 h and the Tmax plasma turned out to be 1 ± 0 h. In series [4] (setting [6]), the peak concentration (Cmax) was found to be 192 ± 76 nM. In series [5] (setting [7]), the “AUC0-t PB” value is 52 ± 30 pmol·h/g, the “Cmax PB” value came to 4.8 ± 1.5 pmol/g tissue, the “MRT0-t PB” value worked out at 18 ± 14 h and the “T1/2 PB” value is on record as 12 ± 8.9 h. In series [5] (setting [7]), the “Tmax PB” value stood at 2.3 ± 2.5 h.
In general, Tmax refers to the time from dosing to the highest level. In general, AUC(0-t) refers to exposure summed from dosing to a finite time, without extrapolation to infinity. As for `O=S(=O)(O)Oc1cc(O)cc(C=Cc2ccc(O)cc2)c1` [resveratrol 3-O-sulfate], the occurrence entry in series [1] was “detected in plasma, PB, and NPB; also recorded: PB, NPB, P”. In series [2], the Tmax is 15 ± 13 h, the “AUC0-t NPB” value stood at 2.2 ± 0.1 pmol·h/g and the “Cmax NPB” value was found to be 0.2 ± 0.04 pmol/g tissue. Further, in series [3], the “transport percentage” value is recorded as below 5% and the “transport efficiency in MIXperc compared with MIXeq” value was “lower transport percentages”. In series [4] (setting [8]), the AUC(0-t) worked out at 0.0084 ± 0.01 µM·h, the Cmax was 2.2 ± 2.6 nM, the MRT last was determined as 8.5 ± 5.5 h and the Tmax amounted to 5.2 ± 2.2 h. Further, in series [4] (setting [8]), the half-life was 3.9 ± 4.3 h. In addition, the Tmax in series [5] (setting [9]) stood at 5 ± 1.7 h. Moreover, in series [5] (setting [7]), the “AUC0-t PB” value was 0.1 ± 0.1 pmol·h/g and the “Cmax PB” value worked out at 0.1 ± 0.01 pmol/g tissue.
Consider `O=C(O)CCc1ccc(O)c(O)c1` [dihydrocaffeic acid], for which the occurrence entry in series [1] is reported as “PB, NPB, P”. Besides, in series [1] (listed as 3-(3,4-dihydroxyphenyl)propionic acid), the occurrence entry is “consistently detected in plasma and brain at all time points”. Moreover, in series [2], the time of peak concentration (Tmax) is 24 h, the “AUC0-t NPB” value worked out at 18 ± 1 pmol·h/g and the “Cmax NPB” value is 0.9 ± 0.1 pmol/g tissue. Also, the “transport percentage” value in series [3] is on record as below 5%. In series [4] (setting [8]), the AUC(0-t) came out at 0.127 ± 0.031 µM·h, the Cmax turned out to be 16 ± 8.6 nM, the MRT last was 86 ± 138 h and the time to peak (Tmax) is 2.6 ± 0.9 h. Moreover, the half-life in series [4] (setting [8]) was 61 ± 94 h. Moreover, the Tmax in series [5] (setting [9]) was 4.5 ± 5 h. In addition, in series [5] (setting [7]), the “AUC0-t PB” value was 11 ± 2.8 pmol·h/g and the “Cmax PB” value is 0.7 ± 0.3 pmol/g tissue.
Take `O=C(O)CCc1cccc(O)c1` [3-(3-hydroxyphenyl) propionic acid]: the occurrence entry in series [1] is recorded as “PB, NPB, P”. Also, in series [1] (listed as 3-(3-hydroxyphenyl)propionic acid), the occurrence entry is “consistently detected in plasma and brain at all time points”. For the same compound, in series [2], the Tmax was 7.5 ± 3.1 h, the MRT last came to 11 ± 4.1 h, the half-life was 20 ± 15 h and the “AUC0-t NPB” value turned out to be 13 ± 11 pmol·h/g. Besides, in series [2], the “Cmax NPB” value was determined as 4.0 ± 3.6 pmol/g tissue. In addition, in series [3], the “transport percentage” value is “exceeding 20%”; the “transport efficiency in both mixtures and as individual molecules” value was “relatively consistent transport efficiencies”. For the same compound, in series [4] (setting [8]), the AUC(0-t) is 0.481 ± 0.353 µM·h, the maximum concentration (Cmax) was determined as 39 ± 20 nM, the MRT last is 9.77 h and the time of peak concentration (Tmax) stood at 13 ± 11 h. The half-life in series [4] (setting [8]) is 6.9 h. Besides, in series [5] (setting [9]), the time of peak concentration (Tmax) worked out at 3.3 ± 2.5 h and the half-life is 11 ± 6.9 h. Moreover, the MRT last in series [5] (male, Sprague-Dawley, rat, 22 mg extract blend per capsule, one capsule per animal, oral capsule, 0-24 h, n = 3 per time point, read-out: MRT0-t PB) was 11 ± 6.9 h. In series [5] (setting [7]), the “AUC0-t PB” value stood at 11 ± 6.8 pmol·h/g and the “Cmax PB” value came out at 1.0 ± 0.5 pmol/g tissue.
In the case of `O=C(O)C=Cc1ccc(OS(=O)(=O)O)cc1` [p-coumaric acid 4-O-sulfate], the occurrence entry in series [1] is “PB, NPB, P”. Further, in series [2], the “AUC0-t NPB” value stood at 1.6 ± 0.6 pmol·h/g, the “Cmax NPB” value is recorded as 0.2 ± 0.1 pmol/g tissue and the “Tmax NPB” value amounted to 3.0 ± 0.0 h. In series [3], the “transport percentage” value was “exceeding 20%”; the “transport efficiency in both mixtures and as individual molecules” value is “relatively consistent transport efficiencies”. For the same compound, in series [4], the AUC0-t plasma turned out to be 0.293 ± 0.154 µM·h, the MRT0-t plasma is 45 ± 37 h, the T1/2 plasma stood at 33 ± 28 h and the Tmax plasma was found to be 3.6 ± 2.6 h. The highest concentration (Cmax) in series [4] (setting [6]) was 44 ± 47 nM. Besides, the “PB concentration relative to ferulic acid 4-O-sulfate” value in series [5] turned out to be 14 fold. In series [5] (setting [7]), the “Cmax PB” value worked out at 2.8 ± 2.4 pmol/g tissue, the “MRT0-t PB” value is reported as 30 ± 20 h, the “T1/2 PB” value is 23.85 h and the “Tmax PB” value is on record as 19 ± 12 h.
In the case of `O=C(O)CCCCc1cccc(O)c1` [5-(3-hydroxyphenyl)-valeric acid], the occurrence entry in series [1] is “PB, NPB, P”. Besides, in series [1] (listed as 5-(3-hydroxyphenyl)valeric acid), the occurrence entry was “consistently detected in plasma and brain at all time points”. Also, in series [2], the time of peak concentration (Tmax) was determined as 2.3 ± 1.2 h, the MRT last came to 102 ± 62 h, the half-life is 70 ± 46 h and the “AUC0-t NPB” value amounted to 33 ± 4.8 pmol·h/g. Moreover, in series [2], the “Cmax NPB” value was found to be 3.4 ± 0.7 pmol/g tissue. Also, the “transport efficiency in MIXperc compared with MIXeq” value in series [3] is given as “lower transport percentages”. Further, the “concentration in plasma (approximate)” value in series [4] was “approximately 5 nM”. Besides, in series [4] (setting [8]), the exposure AUC(0-t) was determined as 0.055 ± 0.011 µM·h, the peak concentration (Cmax) stood at 4.8 ± 1.9 nM, the MRT last came to 43 ± 45 h and the time of peak concentration (Tmax) amounted to 7.4 ± 9.5 h. The half-life in series [4] (setting [8]) is 29 ± 32 h. In series [5] (setting [9]), the Tmax turned out to be 2 ± 1.2 h and the half-life was 39 ± 19 h. Further, in series [5] (setting [7]), the “AUC0-t PB” value worked out at 30 ± 6.5 pmol·h/g and the “Cmax PB” value is given as 2.4 ± 0.8 pmol/g tissue.
